# Tests used:
# PKCβII = target: T1, PKCβII (Rattus norvegicus, UniProt P68403); experiment: C kinase activity reporter (CKAR) FRET assay of cellular PKC activity; type: cell-based; conditions: for activation of WT PKCa and PKCβII (CKAR): COS7 cells, agonist treatment
# T1 construct: expressed in transfected cells; host or cells: COS7
# Protocol: (§1) For activity experiments COS7 cells were co-transfected with the indicated mCherry-tagged PKC construct and CKAR. For Kinameleon experiments, the indicated Kinameleon construct containing mYFP and mCFP was transfected alone. For translocation experiments, COS7 cells were co-transfected with the indicated mYFPtagged construct and plasma-membrane targeted mCFP at a ratio of 10:1. Baseline images were acquired every 15 s for 2 min prior to ligand addition. F6rster resonance energy transfer (FRET) ratios represent mean±SEM from at least three independent experiments.
# (§2) All data were normalized to the baseline FRET ratio of each individual cell unless noted that absolute FRET ratio was plotted or traces were normalized to levels post-inhibitor addition. […] Every experiment contained an mCherry-transfected control to measure endogenous activity, and an mCherry-tagged WT (or deleted pseudosubstrate) PKC. Control traces are depicted as dotted lines: specifically, the endogenous trace in FIG. 1E and the deleted pseudosubstrate trace in FIGS. 2G and 31, were redrawn to serve as a point of reference in those figures (data were acquired and derived in the same experiments which generated all the data in FIGS. 1A-1E and FIGS. 2A-2G, respectively).
# [1] = target: T2, PKCβII deleted pseudosubstrate (Rattus norvegicus, UniProt P68403, DEL19-36); experiment: Immunoblot of PKC priming phosphorylations after phosphatase inhibitor; type: cell-based; conditions: COS-7 cells, 20 minutes prior to lysis
# T2 construct: expressed in transfected cells; host or cells: COS-7
# T2 sequence (P68403 with tags, fused parts or gaps isoform P68403-2 DEL19-36): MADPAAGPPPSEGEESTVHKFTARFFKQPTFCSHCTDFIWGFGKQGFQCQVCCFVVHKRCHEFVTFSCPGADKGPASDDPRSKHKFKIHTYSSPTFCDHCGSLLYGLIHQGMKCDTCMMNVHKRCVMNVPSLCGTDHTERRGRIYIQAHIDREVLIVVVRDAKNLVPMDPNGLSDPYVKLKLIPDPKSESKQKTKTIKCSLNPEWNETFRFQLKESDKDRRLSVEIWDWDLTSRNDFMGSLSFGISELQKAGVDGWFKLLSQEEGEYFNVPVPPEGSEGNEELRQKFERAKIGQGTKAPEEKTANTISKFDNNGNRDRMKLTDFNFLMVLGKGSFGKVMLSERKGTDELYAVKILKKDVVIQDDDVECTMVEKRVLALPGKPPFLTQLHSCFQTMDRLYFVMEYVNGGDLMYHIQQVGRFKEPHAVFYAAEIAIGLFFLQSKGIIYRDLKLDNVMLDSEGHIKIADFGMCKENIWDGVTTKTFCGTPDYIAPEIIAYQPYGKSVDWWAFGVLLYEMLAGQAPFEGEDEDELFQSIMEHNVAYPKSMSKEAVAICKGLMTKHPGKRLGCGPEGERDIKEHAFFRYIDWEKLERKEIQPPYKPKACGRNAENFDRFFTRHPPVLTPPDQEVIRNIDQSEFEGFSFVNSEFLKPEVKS
# Protocol: FIG. 8. PKC APS Phosphorylation Is Not Regulated by a Calyculin-Sensitive Phosphatase. Western blot of lysates from COS-7 cells expressing RFP-tagged PKCβII wild-type (WT) or deleted pseudosubstrate (APS) and treated with DMSO (−) or Calyculin A (Cal, 100pM) and Go6976 (6pM) for 20 minutes prior to lysis. Immunoblots were probed with PKC phospho-specific antibodies against the activation loop (pThr^500), turn motif (pThr” ^1), or hydrophobic motif ([…]), total overexpressed PKC (HA), or phospho-serine substrate (pSer) as a positive control for Calyculin A.
# Cells were lysed in PPHB: 50 mM NaPO4 (pH 7.5), 1% Triton X-100, 20 mM NaF, 1 mM Na4P207, 100 mM NaCl, 2 mM EDTA, 2 mM EGTA, 1 mM Na3VO4, 1 mM PMSF, […] leupeptin, 1 mM DTT, and […]. Phlpp1+/+ and Ph/pp1-/−MEFs were lysed in 50 mM Tris (pH 7.4), 1% Triton X-100, 50 mM NaF, 10 mM Na4P207, 100 mM NaCl, 5 mM EDTA, 1 mM Na3VO4, 1 mM PMSF, […] leupeptin, and […]. Triton-soluble fractions were analyzed by SDS-PAGE on 7% big gels to observe phosphorylation shift, transfer to PVDF membrane (Biorad), and western blotting via chemiluminescence SuperSignal West reagent (Thermo Fisher) on a FluorChem Q imaging system (ProteinSimple). In western blots, the asterisk (*) denotes the position of mature, phosphorylated PKC; whereas, the dash (−) indicates the position of unphosphorylated PKC. […]
# WT PKCβII = WT PKCβII (Rattus norvegicus, UniProt P68403); conditions: COS7 cells, PDBu 200 nM
# Sequence of WT PKCβII (P68403 1-673 isoform P68403-2): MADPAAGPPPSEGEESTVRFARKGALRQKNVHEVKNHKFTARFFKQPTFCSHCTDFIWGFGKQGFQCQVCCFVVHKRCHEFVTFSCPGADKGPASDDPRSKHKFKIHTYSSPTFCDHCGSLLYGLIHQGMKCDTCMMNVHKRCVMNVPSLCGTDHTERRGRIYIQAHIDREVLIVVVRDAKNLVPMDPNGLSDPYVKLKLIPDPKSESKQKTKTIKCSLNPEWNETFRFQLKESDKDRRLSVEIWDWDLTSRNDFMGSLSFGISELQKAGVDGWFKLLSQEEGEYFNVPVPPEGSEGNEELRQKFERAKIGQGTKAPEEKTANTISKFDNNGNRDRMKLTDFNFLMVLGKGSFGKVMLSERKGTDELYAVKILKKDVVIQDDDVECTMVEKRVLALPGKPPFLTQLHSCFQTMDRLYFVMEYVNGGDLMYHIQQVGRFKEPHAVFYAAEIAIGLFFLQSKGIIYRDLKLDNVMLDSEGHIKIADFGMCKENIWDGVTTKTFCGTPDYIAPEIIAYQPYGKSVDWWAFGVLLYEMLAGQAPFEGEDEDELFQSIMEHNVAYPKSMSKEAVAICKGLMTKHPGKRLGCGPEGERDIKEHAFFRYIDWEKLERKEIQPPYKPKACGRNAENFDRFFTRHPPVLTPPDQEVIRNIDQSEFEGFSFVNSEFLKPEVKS
# Protocol: as §1, §2
# T1 sequence (P68403 1-673 isoform P68403-2): as above
SMILES,activation of WT PKCa and PKCβII (CKAR) (PKCβII),rescue of phosphorylation at the three priming sites of pseudosubstrate-deleted PKC [1],"CKAR phosphorylation (PKCβII; COS7 cells expressing WT PKC or turn motif mutant (T641A), PDBu 200 nM)",FRET ratio of Kinameleon reporter (WT PKCβII)
"O=c1ccn([C@@H]2O[C@H](COP(=O)(O)OP(=O)(O)OP(=O)(O)O)[C@@H](O)[C@H]2O)c(=O)[nH]1 [UTP, uridine triphosphate]",activated,,,
COC[C@@H]([C@H](O)[C@H](O)C(=O)NCC[C@H](C)c1nc(/C=C/C[C@@H]2O[C@]3(C[C@@H](O)[C@@H]2C)O[C@H]([C@H](C[C@H](O)[C@H](C)[C@H](O)[C@H](C)/C=C(C)/C(C)=C/C=C/C(C)=C\C#N)OC)[C@H](OP(=O)(O)O)C3(C)C)co1)N(C)C [Calyculin A],,could not be rescued,,
"CCCC(=O)O[C@@H]1[C@@H](C)[C@@]2(O)[C@@H](C=C(CO)C[C@]3(O)C(=O)C(C)=C[C@@H]23)[C@@H]2C(C)(C)[C@]12OC(=O)CCC [PDBu, Phorbol 12,13-dibutyrate]",activated,,robust increase in CKAR phosphorylation,increase in FRET ratio

# — US20230103330A1, “MECHANISTIC BIOMARKER FOR PREDICTING THE SURVIVAL OF PANCREATIC CANCER PATIENTS” (The Regents of the University of California, priority 2020, published 2023)
